Reference: patent US9980972B2, “Rho kinase inhibitors for use in treating familial amyotrophic lateral sclerosis” (GEORG-AUGUST-UNIVERSITÄT GÖTTINGEN STIFTUNG ÖFFENTLICHEN …, priority 2012, dated 2018)

How the values were obtained:
[1] = test system: regenerating axons after optic nerve crush lesion; conditions: high intravitreal dose 40 μmol/l in comparison to medium dose 400 nmol/l; cited from earlier work
[2] = test system: SOD1 G93A mouse model of ALS; assay: Survival (age at death) in SOD1 G93A mouse model of ALS; assay type: in vivo; conditions: presymptomatic from d50, 10 mg/kg body weight, male and female
Excerpt: High-copy B6SJL-Tg(SOD1*G93A)1Gur/J were obtained from Jackson Labs (Stock Number 002726; Bar Harbor, USA) that had originally been produced by Gurney et al. (Gurney, Pu et al. 1994). The colony was maintained by crossing C57BL/6 males harboring the transgene with wild-type SJL females. To verify presence of the transgene in the F1 progeny, tail biopsies were collected from 14-day-old pups and genotyped using PCR. At the age of 35-45 days mice were moved to the testing facility to acclimate to the new environment with a 12-h light/dark cycle before being assigned to a study.
At 50 days (presymptomatic, d50) or 80 days of age (symptomatic, d80) mice were separated into Fasudil-30 (Fas30)- and Fasudil-100 (Fas100)-Treatment or Vehicle Control (Veh) groups. Prior to any treatment, groups were constituted so as to minimize between-group variability by using the following criteria. Groups were balanced with respect to gender and body weight within gender. In addition, groups were age-matched and littermate-matched. […] The study was observer-blinded.
To reach sufficient CSF levels of Fasudil the inventors administered Fasudil (LC Labs, Woburn, USA; product number F-4660) at a low concentration of […] (Fas30) or at a high concentration of 50 mg (Fas100) in 100 ml drinking water. Control groups received the respective amount of isotonic drinking water termed as vehicle (Veh).
Chronic oral treatment with a low dose of Fasudil (F30) or a high dose of Fasudil (F100) was started either presymptomatically at day 50 or symptomatically at day 80 and continued until death.
Survival. Date and cause of death were recorded for each mouse. For humane reasons, animals are closely monitored and sacrificed as moribund prior to actual death using criteria for severe moribundity. To determine duration of survival reliably and humanely, the moribund state, defined as the inability of mice to right themselves 30 seconds after being placed on a side (a neurological score of 4) was used. The moribund mice were scored as “dead”, and were euthanized using carbon dioxide.
The data were then analyzed using Kaplan-Meier survival fit analysis with the Log-Rank and Wilcoxon tests for statistical significance. Cox proportional hazards analysis was also performed to determine hazard ratios and test for statistical significance of their differences using the Effect Likelihood Chi Square test. Statistical analyses were performed using Statistica 9.1 (StatSoft, Hamburg, Germany). P-values less than 0.05 were taken to be statistically significant.
The criteria to terminate the therapy study (later referred to as time of death) were fulfilled if the animals had reached the terminal neurological scoring or had lost a defined percentage of the maximal body weight. This time point then reflects the survival time of the animals whereas disease duration was measured from onset of disease until time of death.

| Structure (SMILES) | number of regenerating axons after optic nerve crush lesion [1] | survival [2] |
| --- | --- | --- |
| Cc1cncc2cccc(S(=O)(=O)N3CCCNC[C@@H]3C)c12 [dimethyl-fasudil, (S)-(+)-2-Methyl-1-[(4-methyl-5-isoquinolinyl)sulfonyl]-hexahydro-1H-1,4-diazepine] | significantly reduced |  |
| C[C@@H](N)[C@H]1CC[C@H](C(=O)Nc2ccncc2)CC1 [Y-27632] |  | no significant effects |
